Experimental data reported in US9212182B2, “Bicyclic sulfonamide compounds as sodium channel inhibitors” (AMGEN INC., priority 2013, dated 2015).
Where two headings read alike, the source gives them in different places.

Experiments:
Nav 1.7 = Nav 1.7 (Homo sapiens (Human), UniProt Q15858); experiment: in-vitro Nav 1.7 PX (IC50); format: cell-based
Nav 1.5 = Nav 1.5 (Homo sapiens (Human), UniProt Q14524); experiment: in-vitro Nav 1.5 PX (IC50); conditions: read-out: Nav 1.5 PX IC50
[1] = in-vitro Nav 1.5 PX data (PatchXpress)

Nav 1.7, sequence (Q15858 whole entry): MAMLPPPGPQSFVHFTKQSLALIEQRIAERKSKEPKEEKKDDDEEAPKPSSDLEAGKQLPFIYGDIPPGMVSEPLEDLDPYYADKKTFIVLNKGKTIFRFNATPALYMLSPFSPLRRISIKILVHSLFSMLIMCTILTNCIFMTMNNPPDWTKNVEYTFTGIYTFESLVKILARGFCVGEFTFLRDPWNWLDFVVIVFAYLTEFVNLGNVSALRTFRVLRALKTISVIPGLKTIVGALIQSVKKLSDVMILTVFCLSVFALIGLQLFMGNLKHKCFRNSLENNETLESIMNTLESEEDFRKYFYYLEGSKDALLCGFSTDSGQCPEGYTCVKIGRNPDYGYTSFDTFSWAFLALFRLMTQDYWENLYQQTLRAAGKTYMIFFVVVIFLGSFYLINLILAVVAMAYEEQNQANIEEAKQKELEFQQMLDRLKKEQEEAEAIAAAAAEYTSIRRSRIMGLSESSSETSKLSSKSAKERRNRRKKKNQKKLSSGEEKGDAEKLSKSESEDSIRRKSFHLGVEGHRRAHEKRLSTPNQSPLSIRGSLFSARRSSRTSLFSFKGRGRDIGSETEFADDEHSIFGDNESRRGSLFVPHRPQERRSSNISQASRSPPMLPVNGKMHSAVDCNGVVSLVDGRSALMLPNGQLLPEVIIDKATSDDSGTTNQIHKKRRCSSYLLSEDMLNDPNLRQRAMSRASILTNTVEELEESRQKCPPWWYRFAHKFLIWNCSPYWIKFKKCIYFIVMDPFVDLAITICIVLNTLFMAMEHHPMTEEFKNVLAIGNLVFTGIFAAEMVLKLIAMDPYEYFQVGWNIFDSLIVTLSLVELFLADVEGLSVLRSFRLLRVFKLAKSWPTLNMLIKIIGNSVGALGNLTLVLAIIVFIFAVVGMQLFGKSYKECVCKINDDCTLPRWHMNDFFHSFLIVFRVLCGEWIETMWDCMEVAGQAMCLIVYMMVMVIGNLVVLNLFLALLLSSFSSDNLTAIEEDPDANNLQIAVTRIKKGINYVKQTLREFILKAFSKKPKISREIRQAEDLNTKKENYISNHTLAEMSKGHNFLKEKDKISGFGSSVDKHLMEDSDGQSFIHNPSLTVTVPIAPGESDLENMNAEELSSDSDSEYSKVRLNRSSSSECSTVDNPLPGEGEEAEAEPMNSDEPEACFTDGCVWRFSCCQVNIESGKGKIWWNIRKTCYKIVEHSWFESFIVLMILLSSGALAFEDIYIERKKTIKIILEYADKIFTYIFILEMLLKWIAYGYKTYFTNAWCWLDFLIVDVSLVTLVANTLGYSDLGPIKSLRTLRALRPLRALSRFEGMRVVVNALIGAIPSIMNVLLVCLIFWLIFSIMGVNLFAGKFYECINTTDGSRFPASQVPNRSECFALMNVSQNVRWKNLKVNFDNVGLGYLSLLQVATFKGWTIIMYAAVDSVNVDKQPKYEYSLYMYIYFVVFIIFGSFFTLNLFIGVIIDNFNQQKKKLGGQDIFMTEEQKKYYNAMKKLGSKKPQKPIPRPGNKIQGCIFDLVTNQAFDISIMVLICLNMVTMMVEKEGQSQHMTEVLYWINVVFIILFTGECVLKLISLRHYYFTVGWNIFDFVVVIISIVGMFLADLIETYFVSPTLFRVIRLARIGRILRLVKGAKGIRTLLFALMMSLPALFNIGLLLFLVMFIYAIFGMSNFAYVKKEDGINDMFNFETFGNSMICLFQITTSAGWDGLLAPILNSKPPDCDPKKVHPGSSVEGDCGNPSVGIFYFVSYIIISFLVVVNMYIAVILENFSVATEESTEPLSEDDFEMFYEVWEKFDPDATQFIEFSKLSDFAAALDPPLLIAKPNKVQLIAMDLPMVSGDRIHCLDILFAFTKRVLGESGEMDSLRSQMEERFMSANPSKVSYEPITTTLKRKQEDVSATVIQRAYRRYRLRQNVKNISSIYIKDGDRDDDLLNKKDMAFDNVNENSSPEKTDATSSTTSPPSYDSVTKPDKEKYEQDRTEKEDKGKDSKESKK
Nav 1.5, sequence (Q14524 whole entry): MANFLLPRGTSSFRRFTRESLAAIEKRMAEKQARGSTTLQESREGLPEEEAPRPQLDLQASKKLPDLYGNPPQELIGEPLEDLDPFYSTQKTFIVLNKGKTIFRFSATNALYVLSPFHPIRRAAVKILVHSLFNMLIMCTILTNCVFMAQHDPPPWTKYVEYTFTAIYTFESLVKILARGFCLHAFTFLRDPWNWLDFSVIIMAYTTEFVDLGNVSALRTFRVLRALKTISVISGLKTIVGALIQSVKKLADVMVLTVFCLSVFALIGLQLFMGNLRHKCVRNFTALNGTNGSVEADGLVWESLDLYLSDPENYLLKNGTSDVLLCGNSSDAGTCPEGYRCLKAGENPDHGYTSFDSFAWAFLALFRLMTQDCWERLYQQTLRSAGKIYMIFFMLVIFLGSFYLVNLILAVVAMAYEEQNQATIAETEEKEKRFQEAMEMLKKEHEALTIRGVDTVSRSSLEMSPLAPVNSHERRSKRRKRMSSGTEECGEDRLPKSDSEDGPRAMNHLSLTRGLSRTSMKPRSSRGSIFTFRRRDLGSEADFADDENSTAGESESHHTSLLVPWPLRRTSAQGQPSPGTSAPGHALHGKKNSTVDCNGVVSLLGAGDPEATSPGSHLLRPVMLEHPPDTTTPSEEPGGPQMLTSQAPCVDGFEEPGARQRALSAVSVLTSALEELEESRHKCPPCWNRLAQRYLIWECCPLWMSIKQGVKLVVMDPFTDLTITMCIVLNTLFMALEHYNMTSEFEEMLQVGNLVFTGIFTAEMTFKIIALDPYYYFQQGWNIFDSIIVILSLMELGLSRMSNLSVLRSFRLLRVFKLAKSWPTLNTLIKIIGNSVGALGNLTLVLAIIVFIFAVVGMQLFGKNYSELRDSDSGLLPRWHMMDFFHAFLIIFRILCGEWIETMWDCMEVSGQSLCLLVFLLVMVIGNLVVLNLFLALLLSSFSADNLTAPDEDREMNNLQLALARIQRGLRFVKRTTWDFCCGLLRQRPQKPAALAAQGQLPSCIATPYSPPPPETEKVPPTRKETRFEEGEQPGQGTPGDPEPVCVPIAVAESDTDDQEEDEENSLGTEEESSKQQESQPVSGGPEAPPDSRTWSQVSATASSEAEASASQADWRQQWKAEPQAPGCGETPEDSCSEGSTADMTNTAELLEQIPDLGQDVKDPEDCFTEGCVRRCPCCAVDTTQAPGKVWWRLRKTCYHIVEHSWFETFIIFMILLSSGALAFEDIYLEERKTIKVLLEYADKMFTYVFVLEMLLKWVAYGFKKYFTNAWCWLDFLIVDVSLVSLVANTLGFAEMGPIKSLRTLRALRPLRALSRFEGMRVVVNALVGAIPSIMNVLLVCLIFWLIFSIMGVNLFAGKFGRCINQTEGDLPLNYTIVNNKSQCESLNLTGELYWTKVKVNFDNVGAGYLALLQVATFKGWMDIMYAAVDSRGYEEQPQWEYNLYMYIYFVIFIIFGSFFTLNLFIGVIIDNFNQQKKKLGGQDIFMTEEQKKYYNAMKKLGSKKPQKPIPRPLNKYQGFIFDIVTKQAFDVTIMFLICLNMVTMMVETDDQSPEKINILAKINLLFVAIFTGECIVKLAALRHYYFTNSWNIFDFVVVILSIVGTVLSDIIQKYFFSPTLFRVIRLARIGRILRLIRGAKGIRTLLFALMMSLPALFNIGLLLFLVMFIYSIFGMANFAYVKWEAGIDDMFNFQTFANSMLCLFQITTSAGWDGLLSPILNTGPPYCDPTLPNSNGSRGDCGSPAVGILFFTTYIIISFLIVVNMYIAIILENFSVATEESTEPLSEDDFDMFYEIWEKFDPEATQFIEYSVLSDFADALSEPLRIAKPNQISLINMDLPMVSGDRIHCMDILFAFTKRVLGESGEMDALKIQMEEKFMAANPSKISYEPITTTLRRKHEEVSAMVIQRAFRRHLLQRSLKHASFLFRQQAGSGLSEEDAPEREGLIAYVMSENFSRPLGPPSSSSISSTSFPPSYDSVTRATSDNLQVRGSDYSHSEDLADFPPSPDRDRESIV

With COc1cc(-c2cccc(F)c2)c(Cl)cc1-n1c(=O)ccc2cc(S(=O)(=O)Nc3nncs3)ccc21 (atropisomer, axis not shown; (P)) [Example 353, (P)-1-(2-chloro-3′-fluoro-5-methoxy-[1,1′-biphenyl]-4-yl)-2-oxo-N-(1,3,4-THIADIAZOL-2-yl)-1,2-dihydroquinoline-6-sulfonamide] the IC50 (Nav 1.7) was 12 nM and the IC50 (Nav 1.5) was > 30000 nM.
COc1cc(-c2cc(F)cc(Cl)c2)c(Cl)cc1-n1c(=O)ccc2cc(S(=O)(=O)Nc3ccon3)ccc21 (atropisomer, axis not shown; (P)) [Example 461, (P)-1-(2,3′-dichloro-5′-fluoro-5-methoxy-[1,1′-biphenyl]-4-yl)-N-(isoxazol-3-yl)-2-oxo-1,2-dihydroquinoline-6-sulfonamide] was tested, and the IC50 (Nav 1.7) was 6 nM and the IC50 (Nav 1.5) was > 30000 nM.
COc1cc(-c2cccc(F)c2)c(Cl)cc1-n1c(=O)ccc2cc(S(=O)(=O)Nc3ccncn3)ccc21 (atropisomer, axis not shown; (P)) [Example 465, (P)-1-(2-chloro-3′-fluoro-5-methoxy-[1,1′-biphenyl]-4-yl)-2-oxo-N-(pyrimidin-4-yl)-1,2-dihydroquinoline-6-sulfonamide] was tested, and the IC50 (Nav 1.5) was > 30000 nM.
For COc1cc(-c2cc(OC)c(-n3c(=O)ccc4cc(S(=O)(=O)Nc5cccnn5)ccc43)cc2F)ccc1Cl (atropisomer, axis not shown; (P)) [Example 628, (P)-1-(4′-chloro-2-fluoro-3′,5-dimethoxy-4-biphenylyl)-2-oxo-N-3-pyridazinyl-1,2-dihydro-6-quinolinesulfonamide], the IC50 (Nav 1.5; [1]) was > 10000 nM.
In the case of COc1cc(-c2cc(OC)c(-n3c(=O)ccc4cc(S(=O)(=O)Nc5ncccn5)ccc43)cc2F)ccc1Cl (atropisomer, axis not shown; (P)) [Example 685, (P)-1-(4′-chloro-2-fluoro-3′,5-dimethoxy-4-biphenylyl)-2-oxo-N-2-pyrimidinyl-1,2-dihydro-6-quinolinesulfonamide], the IC50 (Nav 1.5; [1]) is reported as > 10000 nM.
Compound COc1cc(-c2ccc(F)c(Cl)c2)ccc1-n1c(=O)cnc2cc(S(=O)(=O)Nc3ccon3)ccc21 [Example 1198, 1-(3′-chloro-4′-fluoro-3-methoxy-4-biphenylyl)-N-3-isoxazolyl-2-oxo-1,2-dihydro-6-quinoxalinesulfonamide] has an IC50 (Nav 1.7) of 39 nM.
For COc1cc(-c2ccc(Cl)c(C)c2)ccc1-n1c(=O)cnc2cc(S(=O)(=O)Nc3ncccn3)ccc21 [Example 1199, 1-(4′-chloro-3-methoxy-3′-methyl-4-biphenylyl)-2-oxo-N-2-pyrimidinyl-1,2-dihydro-6-quinoxalinesulfonamide], the IC50 (Nav 1.7) was 127 nM.
With COc1cc(-c2cccc(C(F)(F)F)c2)ccc1-n1c(=O)cnc2cc(S(=O)(=O)Nc3ncccn3)ccc21 [Example 1200, 1-(3-methoxy-3′-(trifluoromethyl)-4-biphenylyl)-2-oxo-N-2-pyrimidinyl-1,2-dihydro-6-quinoxalinesulfonamide] the IC50 (Nav 1.7) was 78 nM.
With COc1cc(-c2cc(OC)c(-n3c(=O)cnc4cc(S(=O)(=O)Nc5ncccn5)ccc43)cc2F)ccc1Cl [Example 1201, 1-(4′-chloro-2-fluoro-3′,5-dimethoxy-4-biphenylyl)-2-oxo-N-2-pyrimidinyl-1,2-dihydro-6-quinoxalinesulfonamide] the IC50 (Nav 1.7) was 110 nM.
Work on COc1nc(OCC(F)(F)C2CCOCC2)c(Cl)cc1-n1c(=O)ccc2cc(S(=O)(=O)Nc3ccon3)ccc21 [Example 1211, 1-(5-chloro-6-(2,2-difluoro-2-(tetrahydro-2H-pyran-4-yl)ethoxy)-2-methoxy-3-pyridinyl)-N-3-isoxazolyl-2-oxo-1,2-dihydro-6-quinolinesulfonamide] yielded an IC50 (Nav 1.7) of 793 nM.
With COc1nc(O[C@H](C)C(F)(F)C(F)F)c(Cl)cc1-n1c(=O)ccc2cc(S(=O)(=O)Nc3ccon3)ccc21 [Example 1212, 1-(5-chloro-2-methoxy-6-(((1R)-2,2,3,3-tetrafluoro-1-methylpropyl)oxy)-3-pyridinyl)-N-3-isoxazolyl-2-oxo-1,2-dihydro-6-quinolinesulfonamide, 1-(5-chloro-2-methoxy-6-(((1S)-2,2,3,3-tetrafluoro-1-methylpropyl)oxy)-3-pyridinyl)-N-3-isoxazolyl-2-oxo-1,2-dihydro-6-quinolinesulfonamide] the IC50 (Nav 1.7) was 136 nM.
In the case of COc1nc(OCc2ccc(F)cc2F)c(Cl)cc1-n1c(=O)ccc2cc(S(=O)(=O)Nc3ccon3)ccc21 [Example 1213, 1-(5-chloro-6-((2,4-difluorobenzyl)oxy)-2-methoxy-3-pyridinyl)-N-3-isoxazolyl-2-oxo-1,2-dihydro-6-quinolinesulfonamide], the IC50 (Nav 1.7) is reported as 172 nM.
COc1nc(OCc2ccc(F)cc2)c(Cl)cc1-n1c(=O)ccc2cc(S(=O)(=O)Nc3ccon3)ccc21 [Example 1214, 1-(5-chloro-6-((4-fluorobenzyl)oxy)-2-methoxy-3-pyridinyl)-N-3-isoxazolyl-2-oxo-1,2-dihydro-6-quinolinesulfonamide] was tested, and the IC50 (Nav 1.7) was 111 nM.
Work on COc1nc(OCc2ccc(F)c(C(F)(F)F)c2)c(Cl)cc1-n1c(=O)ccc2cc(S(=O)(=O)Nc3ccon3)ccc21 [Example 1215, 1-(5-chloro-6-((4-fluoro-3-(trifluoromethyl)benzyl)oxy)-2-methoxy-3-pyridinyl)-N-3-isoxazolyl-2-oxo-1,2-dihydro-6-quinolinesulfonamide] yielded an IC50 (Nav 1.7) of 24 nM.
COc1nc(OCc2ccc(F)c(F)c2F)c(Cl)cc1-n1c(=O)ccc2cc(S(=O)(=O)Nc3ccon3)ccc21 [Example 1216, 1-(5-chloro-2-methxy-6-((2,3,4-trifluorobenzyl)oxy)-3-pyridinyl)-N-3-isoxazolyl-2-oxo-1,2-dihydro-6-quinolinesulfonamide] was tested, and the IC50 (Nav 1.7) was 119 nM.
For COc1nc(OCc2ccc(F)c(F)c2)c(Cl)cc1-n1c(=O)ccc2cc(S(=O)(=O)Nc3ccon3)ccc21 [Example 1217, 1-(5-chloro-6-((3,4-difluorobenzyl)oxy)-2-methoxy-3-pyridinyl)-N-3-isoxazolyl-2-oxo-1,2-dihydro-6-quinolinesulfonamide], the IC50 (Nav 1.7) was 96 nM.
With COc1nc(OCc2cc(F)c(F)c(F)c2)c(Cl)cc1-n1c(=O)ccc2cc(S(=O)(=O)Nc3ccon3)ccc21 [Example 1218, 1-(5-chloro-2-methoxy-6-((3,4,5-trifluorobenzyl)oxy)-3-pyridinyl)-N-3-isoxazolyl-2-oxo-1,2-dihydro-6-quinolinesulfonamide] the IC50 (Nav 1.7) was 39 nM.
With COc1nc(Oc2ccc(F)cc2)c(Cl)cc1-n1c(=O)ccc2cc(S(=O)(=O)Nc3ccon3)ccc21 [Example 1220, 1-(5-chloro-6-(4-fluorophenoxy)-2-methoxy-3-pyridinyl)-N-3-isoxazolyl-2-oxo-1,2-dihydro-6-quinolinesulfonamide] the IC50 (Nav 1.7) was 3100 nM.
COc1nc(Oc2ccc(F)cc2F)c(Cl)cc1-n1c(=O)ccc2cc(S(=O)(=O)Nc3ccon3)ccc21 [Example 1221, 1-(5-chloro-6-(2,4-difluorophenoxy)-2-methoxy-3-pyridinyl)-N-3-isoxazolyl-2-oxo-1,2-dihydro-6-quinolinesulfonamide] gave an IC50 (Nav 1.7) of 2590 nM.
For COc1nc(Oc2ccc(F)c(F)c2)c(Cl)cc1-n1c(=O)ccc2cc(S(=O)(=O)Nc3ccon3)ccc21 [Example 1222, 1-(5-chloro-6-(3,4-difluorophenoxy)-2-methoxy-3-pyridinyl)-N-3-isoxazolyl-2-oxo-1,2-dihydro-6-quinolinesulfonamide], the IC50 (Nav 1.7) was 903 nM.
With COc1nc(O[C@H]2C[C@H]3CC[C@@H]2C3)c(Cl)cc1-n1c(=O)ccc2cc(S(=O)(=O)Nc3ccon3)ccc21 [Example 1223, 1-(6-((1R,2S,4S)-bicyclo[2.2.1]hept-2-yloxy)-5-chloro-2-methoxy-3-pyridinyl)-N-3-isoxazolyl-2-oxo-1,2-dihydro-6-quinolinesulfonamide] the IC50 (Nav 1.7) was 416 nM.
Compound COc1nc(O[C@H]2CCCC[C@H]2C)c(Cl)cc1-n1c(=O)ccc2cc(S(=O)(=O)Nc3ccon3)ccc21 [Example 1224, 1-(5-chloro-2-methoxy-6-(((1S,2R)-2-methylcyclohexyl)oxy)-3-pyridinyl)-N-3-isoxazolyl-2-oxo-1,2-dihydro-6-quinolinesulfonamide] has an IC50 (Nav 1.7) of 88 nM.
Compound COc1nc(Oc2cc(F)ccc2F)c(Cl)cc1-n1c(=O)ccc2cc(S(=O)(=O)Nc3ccon3)ccc21 [Example 1225, 1-(5-chloro-6-(2,5-difluorophenoxy)-2-methoxy-3-pyridinyl)-N-3-isoxazolyl-2-oxo-1,2-dihydro-6-quinolinesulfonamide] has an IC50 (Nav 1.7) of 846 nM.
For COc1nc(Oc2cccc(Cl)c2C)c(Cl)cc1-n1c(=O)ccc2cc(S(=O)(=O)Nc3ccon3)ccc21 [Example 1226, 1-(5-chloro-6-(3-chloro-2-methylphenoxy)-2-methoxy-3-pyridinyl)-N-3-isoxazolyl-2-oxo-1,2-dihydro-6-quinolinesulfonamide], the IC50 (Nav 1.7) was 316 nM.
In the case of COc1nc(N(C)C2CCCC2)c(Cl)cc1-n1c(=O)ccc2cc(S(=O)(=O)Nc3ccon3)ccc21 [Example 1231, 1-(5-chloro-6-(cyclopentyl(methyl)amino)-2-methoxy-3-pyridinyl)-N-3-isoxazolyl-2-oxo-1,2-dihydro-6-quinolinesulfonamide], the IC50 (Nav 1.7) is reported as 115 nM.
For COc1nc(NC[C@H]2CCC(C)(C)O2)c(Cl)cc1-n1c(=O)ccc2cc(S(=O)(=O)Nc3ccon3)ccc21 [Example 1232, 1-(5-chloro-6-((((2R)-5,5-dimethyltetrahydro-2-furanyl)methyl)amino)-2-methoxy-3-pyridinyl)-N-3-isoxazolyl-2-oxo-1,2-dihydro-6-quinolinesulfonamide, 1-(5-chloro-6-((((2S)-5,5-dimethyltetrahydro-2-furanyl)methyl)amino)-2-methoxy-3-pyridinyl)-N-3-isoxazolyl-2-oxo-1,2-dihydro-6-quinolinesulfonamide], the IC50 (Nav 1.7) was 2940 nM.
Compound COc1nc(NCC2(C)CCCC2)c(Cl)cc1-n1c(=O)ccc2cc(S(=O)(=O)Nc3ccon3)ccc21 [Example 1236, 1-(5-chloro-2-methoxy-6-(((1-methylcyclopentyl)methyl)amino)-3-pyridinyl)-N-3-isoxazolyl-2-oxo-1,2-dihydro-6-quinolinesulfonamide] has an IC50 (Nav 1.7) of 507 nM.
